Test results: ChEMBL document CHEMBL1159053, “Synthesis and antifungal activities in vitro of novel pyrazino [2,1-a] isoquinolin derivatives” (2010)
In brackets after ≈: the same amount, converted by molar mass.

System: Cryptococcus neoformans
Assay: Antifungal activity against Cryptococcus neoformans by serial dilution method
Format: functional

Row | SMILES | MIC80 [µg/mL]
1 | CCCCCCCCCCN1CCc2cc(O)c(O)cc2C1 | 16 (≈ 52.4 µM)
2 | CCCCN1CCN2CCc3ccc(F)cc3C2C1 (stereo not given) | > 64
3 | CCCCCCCCN1CC(=O)N2CCc3ccc(F)cc3C2C1 (stereo not given) | 16 (≈ 48.1 µM)
4 | CCCCN1CC(=O)N2CCc3cc(OC)c(OC)cc3C2C1 (stereo not given) | 16 (≈ 50.2 µM)
5 | CCCCN1CC(=O)N2CCc3ccc(F)cc3C2C1 (stereo not given) | 32 (≈ 116 µM)
6 | CCCCCCCCN1CCN2CCc3cc(O)c(O)cc3C2C1 (stereo not given) | 2 (≈ 6.02 µM)
7 | CCCCCCCCCN1CC(=O)N2CCc3cc(OC)c(OC)cc3C2C1 (stereo not given) | 4 (≈ 10.3 µM)
8 | CCCCCCCCN1CCN2CCc3cc(OC)c(OC)cc3C2C1 (stereo not given) | 8 (≈ 22.2 µM)
9 | CCCCCCCCN1CCN2CCc3ccc(F)cc3C2C1 (stereo not given) | 4 (≈ 12.6 µM)
10 | CCCCCCCCCN1CCN2CCc3cc(O)c(O)cc3C2C1 (stereo not given) | 4 (≈ 11.5 µM)
11 | CCCCCCCCCCCCN1CC(=O)N2CCc3cc(OC)c(OC)cc3C2C1 (stereo not given) | 32 (≈ 74.3 µM)
12 | CCCCN1CCN2CCc3cc(O)c(O)cc3C2C1 (stereo not given) | 4 (≈ 14.5 µM)
13 | CCCCCCCCN1CC(=O)N2CCc3cc(OC)c(OC)cc3C2C1 (stereo not given) | 8 (≈ 21.4 µM)
14 | CCCCCCCCCN1CC(=O)N2CCc3ccc(F)cc3C2C1 (stereo not given) | 2 (≈ 5.77 µM)
15 | CCCCCCCCCN1CCN2CCc3cc(OC)c(OC)cc3C2C1 (stereo not given) | 4 (≈ 10.7 µM)
16 | CCCCCCCCCN1CCN2CCc3ccc(F)cc3C2C1 (stereo not given) | 4 (≈ 12 µM)
17 | CCCCCCCCCCCCN1CCN2CCc3cc(OC)c(OC)cc3C2C1 (stereo not given) | 16 (≈ 38.4 µM)
18 | CCCCCCCCCCCCN1CCN2CCc3ccc(F)cc3C2C1 (stereo not given) | 64 (≈ 171 µM)
19 | CCCCCCCCCCCCN1CC(=O)N2CCc3ccc(F)cc3C2C1 (stereo not given) | > 64
20 | CCCCCCCCCCCCN1CCN2CCc3cc(O)c(O)cc3C2C1 (stereo not given) | 16 (≈ 41.2 µM)
21 | CCCCN1CCN2CCc3cc(OC)c(OC)cc3C2C1 (stereo not given) | > 64
22 | OC(Cn1cncn1)(Cn1cncn1)c1ccc(F)cc1F [FLUCONAZOLE] | 4 (≈ 13.1 µM)

System: Candida albicans
Assay: Antifungal activity against Candida albicans by serial dilution method
Format: functional

Row | SMILES | MIC80 [µg/mL]
23 | CCCCCCCCCCN1CCc2cc(O)c(O)cc2C1 | 64 (≈ 210 µM)
24 | CCCCN1CCN2CCc3ccc(F)cc3C2C1 (stereo not given) | 64 (≈ 244 µM)
25 | CCCCCCCCN1CC(=O)N2CCc3ccc(F)cc3C2C1 (stereo not given) | > 64
26 | CCCCN1CC(=O)N2CCc3cc(OC)c(OC)cc3C2C1 (stereo not given) | > 64
27 | CCCCN1CC(=O)N2CCc3ccc(F)cc3C2C1 (stereo not given) | > 64
28 | CCCCCCCCN1CCN2CCc3cc(O)c(O)cc3C2C1 (stereo not given) | 16 (≈ 48.1 µM)
29 | CCCCCCCCCN1CC(=O)N2CCc3cc(OC)c(OC)cc3C2C1 (stereo not given) | 64 (≈ 165 µM)
30 | CCCCCCCCN1CCN2CCc3cc(OC)c(OC)cc3C2C1 (stereo not given) | 32 (≈ 88.8 µM)
31 | CCCCCCCCN1CCN2CCc3ccc(F)cc3C2C1 (stereo not given) | 16 (≈ 50.2 µM)
32 | CCCCCCCCCN1CCN2CCc3cc(O)c(O)cc3C2C1 (stereo not given) | 8 (≈ 23.1 µM)
33 | CCCCCCCCCCCCN1CC(=O)N2CCc3cc(OC)c(OC)cc3C2C1 (stereo not given) | > 64
34 | CCCCN1CCN2CCc3cc(O)c(O)cc3C2C1 (stereo not given) | > 64
35 | CCCCCCCCN1CC(=O)N2CCc3cc(OC)c(OC)cc3C2C1 (stereo not given) | 16 (≈ 42.7 µM)
36 | CCCCCCCCCN1CC(=O)N2CCc3ccc(F)cc3C2C1 (stereo not given) | 32 (≈ 92.4 µM)
37 | CCCCCCCCCN1CCN2CCc3cc(OC)c(OC)cc3C2C1 (stereo not given) | 32 (≈ 85.4 µM)
38 | CCCCCCCCCN1CCN2CCc3ccc(F)cc3C2C1 (stereo not given) | 8 (≈ 24.1 µM)
39 | CCCCCCCCCCCCN1CCN2CCc3cc(OC)c(OC)cc3C2C1 (stereo not given) | > 64
40 | CCCCCCCCCCCCN1CCN2CCc3ccc(F)cc3C2C1 (stereo not given) | > 64
41 | CCCCCCCCCCCCN1CC(=O)N2CCc3ccc(F)cc3C2C1 (stereo not given) | > 64
42 | CCCCCCCCCCCCN1CCN2CCc3cc(O)c(O)cc3C2C1 (stereo not given) | 64 (≈ 165 µM)
43 | CCCCN1CCN2CCc3cc(OC)c(OC)cc3C2C1 (stereo not given) | > 64
44 | OC(Cn1cncn1)(Cn1cncn1)c1ccc(F)cc1F [FLUCONAZOLE] | 2 (≈ 6.53 µM)

System: Trichophyton rubrum
Assay: Antifungal activity against Trichophyton rubrum by serial dilution method
Format: functional

Row | SMILES | MIC80 [µg/mL]
45 | CCCCCCCCCCN1CCc2cc(O)c(O)cc2C1 | 32 (≈ 105 µM)
46 | CCCCN1CCN2CCc3ccc(F)cc3C2C1 (stereo not given) | > 64
47 | CCCCCCCCN1CC(=O)N2CCc3ccc(F)cc3C2C1 (stereo not given) | 16 (≈ 48.1 µM)
48 | CCCCN1CC(=O)N2CCc3cc(OC)c(OC)cc3C2C1 (stereo not given) | > 64
49 | CCCCN1CC(=O)N2CCc3ccc(F)cc3C2C1 (stereo not given) | 64 (≈ 232 µM)
50 | CCCCCCCCN1CCN2CCc3cc(O)c(O)cc3C2C1 (stereo not given) | 16 (≈ 48.1 µM)
51 | CCCCCCCCCN1CC(=O)N2CCc3cc(OC)c(OC)cc3C2C1 (stereo not given) | 32 (≈ 82.4 µM)
52 | CCCCCCCCN1CCN2CCc3cc(OC)c(OC)cc3C2C1 (stereo not given) | 16 (≈ 44.4 µM)
53 | CCCCCCCCN1CCN2CCc3ccc(F)cc3C2C1 (stereo not given) | 8 (≈ 25.1 µM)
54 | CCCCCCCCCN1CCN2CCc3cc(O)c(O)cc3C2C1 (stereo not given) | 8 (≈ 23.1 µM)
55 | CCCCCCCCCCCCN1CC(=O)N2CCc3cc(OC)c(OC)cc3C2C1 (stereo not given) | > 64
56 | CCCCN1CCN2CCc3cc(O)c(O)cc3C2C1 (stereo not given) | > 64
57 | CCCCCCCCN1CC(=O)N2CCc3cc(OC)c(OC)cc3C2C1 (stereo not given) | 32 (≈ 85.4 µM)
58 | CCCCCCCCCN1CC(=O)N2CCc3ccc(F)cc3C2C1 (stereo not given) | 4 (≈ 11.5 µM)
59 | CCCCCCCCCN1CCN2CCc3cc(OC)c(OC)cc3C2C1 (stereo not given) | 8 (≈ 21.4 µM)
60 | CCCCCCCCCN1CCN2CCc3ccc(F)cc3C2C1 (stereo not given) | 8 (≈ 24.1 µM)
61 | CCCCCCCCCCCCN1CCN2CCc3cc(OC)c(OC)cc3C2C1 (stereo not given) | > 64
62 | CCCCCCCCCCCCN1CCN2CCc3ccc(F)cc3C2C1 (stereo not given) | 64 (≈ 171 µM)
63 | CCCCCCCCCCCCN1CC(=O)N2CCc3ccc(F)cc3C2C1 (stereo not given) | 64 (≈ 165 µM)
64 | CCCCCCCCCCCCN1CCN2CCc3cc(O)c(O)cc3C2C1 (stereo not given) | 16 (≈ 41.2 µM)
65 | CCCCN1CCN2CCc3cc(OC)c(OC)cc3C2C1 (stereo not given) | > 64
66 | OC(Cn1cncn1)(Cn1cncn1)c1ccc(F)cc1F [FLUCONAZOLE] | 32 (≈ 104 µM)

System: Nannizzia gypsea
Assay: Antifungal activity against Microsporum gypseum by serial dilution method
Format: functional

Row | SMILES | MIC80 [µg/mL]
67 | CCCCCCCCCCN1CCc2cc(O)c(O)cc2C1 | 16 (≈ 52.4 µM)
68 | CCCCN1CCN2CCc3ccc(F)cc3C2C1 (stereo not given) | 4 (≈ 15.2 µM)
69 | CCCCCCCCN1CC(=O)N2CCc3ccc(F)cc3C2C1 (stereo not given) | 16 (≈ 48.1 µM)
70 | CCCCN1CC(=O)N2CCc3cc(OC)c(OC)cc3C2C1 (stereo not given) | > 64
71 | CCCCN1CC(=O)N2CCc3ccc(F)cc3C2C1 (stereo not given) | > 64
72 | CCCCCCCCN1CCN2CCc3cc(O)c(O)cc3C2C1 (stereo not given) | 32 (≈ 96.2 µM)
73 | CCCCCCCCCN1CC(=O)N2CCc3cc(OC)c(OC)cc3C2C1 (stereo not given) | 2 (≈ 5.15 µM)
74 | CCCCCCCCN1CCN2CCc3cc(OC)c(OC)cc3C2C1 (stereo not given) | 4 (≈ 11.1 µM)
75 | CCCCCCCCN1CCN2CCc3ccc(F)cc3C2C1 (stereo not given) | 4 (≈ 12.6 µM)
76 | CCCCCCCCCN1CCN2CCc3cc(O)c(O)cc3C2C1 (stereo not given) | 8 (≈ 23.1 µM)
77 | CCCCCCCCCCCCN1CC(=O)N2CCc3cc(OC)c(OC)cc3C2C1 (stereo not given) | 64 (≈ 149 µM)
78 | CCCCN1CCN2CCc3cc(O)c(O)cc3C2C1 (stereo not given) | > 64
79 | CCCCCCCCN1CC(=O)N2CCc3cc(OC)c(OC)cc3C2C1 (stereo not given) | 8 (≈ 21.4 µM)
80 | CCCCCCCCCN1CC(=O)N2CCc3ccc(F)cc3C2C1 (stereo not given) | 0.5 (≈ 1.44 µM)
81 | CCCCCCCCCN1CCN2CCc3cc(OC)c(OC)cc3C2C1 (stereo not given) | 2 (≈ 5.34 µM)
82 | CCCCCCCCCN1CCN2CCc3ccc(F)cc3C2C1 (stereo not given) | 2 (≈ 6.01 µM)
83 | CCCCCCCCCCCCN1CCN2CCc3cc(OC)c(OC)cc3C2C1 (stereo not given) | 32 (≈ 76.8 µM)
84 | CCCCCCCCCCCCN1CCN2CCc3ccc(F)cc3C2C1 (stereo not given) | 4 (≈ 10.7 µM)
85 | CCCCCCCCCCCCN1CC(=O)N2CCc3ccc(F)cc3C2C1 (stereo not given) | 64 (≈ 165 µM)
86 | CCCCCCCCCCCCN1CCN2CCc3cc(O)c(O)cc3C2C1 (stereo not given) | 16 (≈ 41.2 µM)
87 | CCCCN1CCN2CCc3cc(OC)c(OC)cc3C2C1 (stereo not given) | > 64
88 | OC(Cn1cncn1)(Cn1cncn1)c1ccc(F)cc1F [FLUCONAZOLE] | 2 (≈ 6.53 µM)

System: Aspergillus fumigatus
Assay: Antifungal activity against Aspergillus fumigatus by serial dilution method
Format: functional

Row | SMILES | MIC80 [µg/mL]
89 | CCCCCCCCCCN1CCc2cc(O)c(O)cc2C1 | 64 (≈ 210 µM)
90 | CCCCN1CCN2CCc3ccc(F)cc3C2C1 (stereo not given) | > 64
91 | CCCCCCCCN1CC(=O)N2CCc3ccc(F)cc3C2C1 (stereo not given) | 32 (≈ 96.3 µM)
92 | CCCCN1CC(=O)N2CCc3cc(OC)c(OC)cc3C2C1 (stereo not given) | > 64
93 | CCCCN1CC(=O)N2CCc3ccc(F)cc3C2C1 (stereo not given) | > 64
94 | CCCCCCCCN1CCN2CCc3cc(O)c(O)cc3C2C1 (stereo not given) | 64 (≈ 192 µM)
95 | CCCCCCCCCN1CC(=O)N2CCc3cc(OC)c(OC)cc3C2C1 (stereo not given) | 32 (≈ 82.4 µM)
96 | CCCCCCCCN1CCN2CCc3cc(OC)c(OC)cc3C2C1 (stereo not given) | 8 (≈ 22.2 µM)
97 | CCCCCCCCN1CCN2CCc3ccc(F)cc3C2C1 (stereo not given) | 32 (≈ 100 µM)
98 | CCCCCCCCCN1CCN2CCc3cc(O)c(O)cc3C2C1 (stereo not given) | 64 (≈ 185 µM)
99 | CCCCCCCCCCCCN1CC(=O)N2CCc3cc(OC)c(OC)cc3C2C1 (stereo not given) | > 64
100 | CCCCN1CCN2CCc3cc(O)c(O)cc3C2C1 (stereo not given) | > 64
101 | CCCCCCCCN1CC(=O)N2CCc3cc(OC)c(OC)cc3C2C1 (stereo not given) | 64 (≈ 171 µM)
102 | CCCCCCCCCN1CC(=O)N2CCc3ccc(F)cc3C2C1 (stereo not given) | 16 (≈ 46.2 µM)
103 | CCCCCCCCCN1CCN2CCc3cc(OC)c(OC)cc3C2C1 (stereo not given) | 8 (≈ 21.4 µM)
104 | CCCCCCCCCN1CCN2CCc3ccc(F)cc3C2C1 (stereo not given) | 16 (≈ 48.1 µM)
105 | CCCCCCCCCCCCN1CCN2CCc3cc(OC)c(OC)cc3C2C1 (stereo not given) | > 64
106 | CCCCCCCCCCCCN1CCN2CCc3ccc(F)cc3C2C1 (stereo not given) | > 64
107 | CCCCCCCCCCCCN1CC(=O)N2CCc3ccc(F)cc3C2C1 (stereo not given) | 32 (≈ 82.4 µM)
108 | CCCCCCCCCCCCN1CCN2CCc3cc(O)c(O)cc3C2C1 (stereo not given) | 64 (≈ 165 µM)
109 | CCCCN1CCN2CCc3cc(OC)c(OC)cc3C2C1 (stereo not given) | > 64
110 | OC(Cn1cncn1)(Cn1cncn1)c1ccc(F)cc1F [FLUCONAZOLE] | > 64
